Tests used:
[1] = biological target: Leukotriene B4 receptor 1 (Homo sapiens, UniProt Q15722); assay: In vitro inhibitory activity against human neutrophil leukotriene B4 (LTB4)
[2] = biological target: T1, Cysteinyl leukotriene receptor 1 (Cavia porcellus, UniProt Q2NNR5); assay: In vitro inhibitory activity against leukotriene D4 receptor
T1 sequence (Q2NNR5 whole entry): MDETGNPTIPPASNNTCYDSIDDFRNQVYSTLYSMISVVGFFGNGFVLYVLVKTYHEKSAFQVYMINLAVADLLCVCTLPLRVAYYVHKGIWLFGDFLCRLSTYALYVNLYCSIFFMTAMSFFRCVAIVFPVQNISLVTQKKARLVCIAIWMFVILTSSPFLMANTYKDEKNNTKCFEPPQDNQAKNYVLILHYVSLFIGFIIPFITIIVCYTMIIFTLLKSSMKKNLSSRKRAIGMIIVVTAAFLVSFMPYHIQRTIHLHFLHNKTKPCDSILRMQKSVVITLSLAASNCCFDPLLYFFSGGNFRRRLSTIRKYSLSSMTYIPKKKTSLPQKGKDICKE

[3] = biological target: T1, Cysteinyl leukotriene receptor 1; assay: In vitro inhibitory activity against human leukotriene D4 (LTD4)

Leukotriene B4 receptor 1, sequence (Q15722 whole entry): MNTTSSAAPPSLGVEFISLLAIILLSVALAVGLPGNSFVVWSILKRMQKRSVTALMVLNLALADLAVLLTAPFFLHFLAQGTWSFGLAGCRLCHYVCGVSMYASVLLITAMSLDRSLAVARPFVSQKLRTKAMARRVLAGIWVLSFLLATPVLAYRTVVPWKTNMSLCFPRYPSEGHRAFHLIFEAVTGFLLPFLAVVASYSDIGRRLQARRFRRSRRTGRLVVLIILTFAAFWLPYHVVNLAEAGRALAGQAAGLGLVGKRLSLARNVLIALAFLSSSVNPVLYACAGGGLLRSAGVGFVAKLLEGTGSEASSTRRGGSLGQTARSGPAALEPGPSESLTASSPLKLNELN

Row | SMILES | Ki [1] | Ki [2] | Ki [3]
1 | C[C@H](Oc1ccc2c(c1)OC[C@@H](Cc1cccnc1)[C@@H]2O)c1ccc2ccccc2n1 | 1.9 µM | > 50 µM | –
2 | O[C@@H]1c2cc(OCc3ccc4ccccc4n3)ccc2OC[C@H]1Cc1cccnc1 | 16 µM | 1 µM | –
3 | O[C@@H]1c2ccc(OCc3ccc4ccccc4n3)cc2OC[C@H]1Cc1cccnc1 | – | 4.1 µM | –
4 | CC(Oc1ccc2c(c1)OC[C@H](Cc1ccccn1)[C@@H]2O)c1ccc2ccccc2n1 (stereo partly specified) | 3.3 µM | > 50 µM | –
5 | CC(Oc1ccc2c(c1)OC[C@H](Cc1cccnc1)[C@@H]2O)c1ccc2ccccc2n1 (stereo partly specified) | 5.2 µM | > 50 µM | –
6 | O[C@@H]1c2cc(OCc3ccc4ccccc4n3)ccc2OC[C@@H]1Cc1cccnc1 | 38 µM | – | 1.6 µM
7 | C[C@@H](Oc1ccc2c(c1)OC[C@@H](Cc1cccnc1)[C@@H]2O)c1ccc2ccccc2n1 | 0.33 µM | > 50 µM | –
8 | O[C@@H]1c2ccc(OCc3ccc4ccccc4n3)cc2OC[C@@H]1Cc1cccnc1 | – | 1.3 µM | –
9 | CC(Oc1ccc2c(c1)OC[C@@H](Cc1ccccn1)[C@@H]2O)c1ccc2ccccc2n1 (stereo partly specified) | 0.24 µM | > 50 µM | –

Reference: ChEMBL document CHEMBL1149982, “Synthesis and in vitro profile of 7-substituted quinoline chromanols as novel, non-acidic LTB4 antagonists” (Bioorg Med Chem Lett, 1995)
